Measured values published in patent US20250353864A1, “INDAZOLE CONTAINING MACROCYCLES AND THEIR USE” (BLOSSOMHILL THERAPEUTICS, INC., priority 2022, published 2025).

How the values were obtained:
Assay type in all cases: biochemical
[1] = target: EGFR WT (Homo sapiens (Human), UniProt P00533); assay: HotSpot radiometric kinase assay (Reaction Biology), EGFR WT; details: 10 μM ATP
Method in brief: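 Kinase, substrate and cofactors are mixed in 20 mM Hepes pH 7.5 with 10 mM MgCl2, 1 mM EGTA, 2 mM DTT and 1% DMSO. Compound is added, and about 20 min later ATP/33P-ATP (10 μM final) starts a 120-min room-temperature reaction, which is then spotted onto P81 paper.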

[2] = target: EGFR (D770_N771insNPG) (Homo sapiens (Human), UniProt P00533, INS770NPG); assay: HotSpot radiometric kinase assay, EGFR (D770_N771insNPG); details: 10 μM ATP, read-out: EGFR (Δ770_N771insNPG) IC50
Method in brief: (§1)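 Enzyme and substrate pairs were exposed to inhibitor for roughly 20 min before radiolabelled ATP (10 μM final) was introduced; the reaction proceeded 120 min at ambient temperature in pH 7.5 buffer with 1% DMSO, and phosphorylated product was captured on P81 filters for IC50 determination.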

[3] = target: EGFR Δ746-750 mutant (Homo sapiens (Human), UniProt P00533, DEL746-750); assay: HotSpot radiometric kinase assay, EGFR Δ746-750 mutant; details: 10 μM ATP
Method in brief: as §1

[4] = target: EGFR Δ746-750/C797S mutant (Homo sapiens (Human), UniProt P00533, C797S/DEL746-750); assay: HotSpot radiometric kinase assay, EGFR Δ746-750/C797S mutant; details: 10 μM ATP
Method in brief: as §1

[5] = target: EGFR L858R mutant (Homo sapiens (Human), UniProt P00533, L858R); assay: HotSpot radiometric kinase assay, EGFR L858R mutant; details: 10 μM ATP
Method in brief: as §1

[6] = target: EGFR L858R/T790M mutant (Homo sapiens (Human), UniProt P00533, L858R/T790M); assay: HotSpot radiometric kinase assay, EGFR L858R/T790M mutant; details: 10 μM ATP
Method in brief: as §1

[7] = target: EGFR L858R/T790M/C797S mutant (Homo sapiens (Human), UniProt P00533, C797S/L858R/T790M); assay: HotSpot radiometric kinase assay, EGFR L858R/T790M/C797S mutant; details: 10 μM ATP
Method in brief: as §1

[8] = target: CLK1 (Homo sapiens (Human), UniProt P49759); assay: Inhibition of CLK1 kinase activity evaluated at Nanosyn (ADP-Glo); details: ADP-Glo luminescence
Experimental: (§2) Inhibition of CLK, CLK2, CLK3 and CLK4 Kinase Activity Evaluated at Nanosyn
(§3) Kinase protein and substrate were pre-diluted in the HEPES assay buffer (100 mM HEPES, pH 7.5, 0.01% Triton X-100, 0.1% BSA, 5 mM MgCl2, […] DTT, 10 Sodium Orthovanadate, […] Beta-Glycerophosphate) dispensed into 384 well plate (5 μL per well). Control samples (0%-inhibition in the absence of inhibitor, DMSO only) and 100%-inhibition (in the absence of enzyme) were assembled in replicates of six and were used to calculate %-inhibition in the presence of compounds. Test compounds were added to the protein samples by acoustic dispensing (Labcyte Echo550). Concentration of DMSO was equalized to 1% in all samples. Reactions were initiated by addition of ATP by acoustic dispensing (Labcyte Echo550) and incubated according to assay specific incubation time. After incubation. 5 μL of Promega ADP-Glo reagent was added and incubated for 40 minutes. After 40 minutes, 10 uL of Promega kinase detection reagent was added. After 10 min of incubation with Kinase detection reagent, the luminescence was read on microplate reader (Biotek Synergy).

[9] = target: CLK2 (Homo sapiens (Human), UniProt P49760); assay: Inhibition of CLK2 kinase activity evaluated at Nanosyn (ADP-Glo); details: ADP-Glo luminescence
Experimental: as §2, §3

[10] = target: CLK3 (Homo sapiens (Human), UniProt P49761); assay: Inhibition of CLK3 kinase activity evaluated at Nanosyn (ADP-Glo); details: ADP-Glo luminescence
Experimental: as §2, §3

[11] = target: CLK4 (Homo sapiens (Human), UniProt Q9HAZ1); assay: Inhibition of CLK4 kinase activity evaluated at Nanosyn (ADP-Glo); details: ADP-Glo luminescence
Experimental: as §2, §3

Sequence of CLK1 (P49759 whole entry): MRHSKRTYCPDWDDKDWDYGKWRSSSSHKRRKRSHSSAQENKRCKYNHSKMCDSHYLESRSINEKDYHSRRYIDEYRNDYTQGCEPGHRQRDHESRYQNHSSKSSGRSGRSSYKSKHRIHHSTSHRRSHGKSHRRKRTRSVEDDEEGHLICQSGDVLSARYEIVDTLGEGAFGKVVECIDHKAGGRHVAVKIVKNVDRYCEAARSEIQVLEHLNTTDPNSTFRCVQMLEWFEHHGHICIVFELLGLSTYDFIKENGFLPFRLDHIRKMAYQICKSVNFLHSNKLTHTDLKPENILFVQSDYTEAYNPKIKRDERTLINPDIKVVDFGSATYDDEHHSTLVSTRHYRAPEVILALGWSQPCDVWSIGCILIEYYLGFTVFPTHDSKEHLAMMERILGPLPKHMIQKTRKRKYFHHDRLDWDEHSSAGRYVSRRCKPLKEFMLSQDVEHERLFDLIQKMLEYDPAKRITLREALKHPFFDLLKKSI
Sequence of CLK2 (P49760 whole entry): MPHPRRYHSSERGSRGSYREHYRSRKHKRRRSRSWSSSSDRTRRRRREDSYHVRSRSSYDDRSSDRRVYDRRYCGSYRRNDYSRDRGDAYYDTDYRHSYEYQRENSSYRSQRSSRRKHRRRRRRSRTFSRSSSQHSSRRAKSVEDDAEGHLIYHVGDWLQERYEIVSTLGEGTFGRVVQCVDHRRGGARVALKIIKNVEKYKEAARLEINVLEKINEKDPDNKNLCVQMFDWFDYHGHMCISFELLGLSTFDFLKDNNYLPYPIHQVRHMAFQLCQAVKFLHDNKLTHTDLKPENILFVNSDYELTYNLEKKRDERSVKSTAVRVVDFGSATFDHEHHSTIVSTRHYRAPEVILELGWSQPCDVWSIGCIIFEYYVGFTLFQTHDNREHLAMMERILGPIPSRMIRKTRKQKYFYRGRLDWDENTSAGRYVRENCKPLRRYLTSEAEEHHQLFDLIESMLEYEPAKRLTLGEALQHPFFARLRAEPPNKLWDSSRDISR
Sequence of EGFR L858R/T790M/C797S mutant (P00533 25-1210 T790M/C797S/L858R): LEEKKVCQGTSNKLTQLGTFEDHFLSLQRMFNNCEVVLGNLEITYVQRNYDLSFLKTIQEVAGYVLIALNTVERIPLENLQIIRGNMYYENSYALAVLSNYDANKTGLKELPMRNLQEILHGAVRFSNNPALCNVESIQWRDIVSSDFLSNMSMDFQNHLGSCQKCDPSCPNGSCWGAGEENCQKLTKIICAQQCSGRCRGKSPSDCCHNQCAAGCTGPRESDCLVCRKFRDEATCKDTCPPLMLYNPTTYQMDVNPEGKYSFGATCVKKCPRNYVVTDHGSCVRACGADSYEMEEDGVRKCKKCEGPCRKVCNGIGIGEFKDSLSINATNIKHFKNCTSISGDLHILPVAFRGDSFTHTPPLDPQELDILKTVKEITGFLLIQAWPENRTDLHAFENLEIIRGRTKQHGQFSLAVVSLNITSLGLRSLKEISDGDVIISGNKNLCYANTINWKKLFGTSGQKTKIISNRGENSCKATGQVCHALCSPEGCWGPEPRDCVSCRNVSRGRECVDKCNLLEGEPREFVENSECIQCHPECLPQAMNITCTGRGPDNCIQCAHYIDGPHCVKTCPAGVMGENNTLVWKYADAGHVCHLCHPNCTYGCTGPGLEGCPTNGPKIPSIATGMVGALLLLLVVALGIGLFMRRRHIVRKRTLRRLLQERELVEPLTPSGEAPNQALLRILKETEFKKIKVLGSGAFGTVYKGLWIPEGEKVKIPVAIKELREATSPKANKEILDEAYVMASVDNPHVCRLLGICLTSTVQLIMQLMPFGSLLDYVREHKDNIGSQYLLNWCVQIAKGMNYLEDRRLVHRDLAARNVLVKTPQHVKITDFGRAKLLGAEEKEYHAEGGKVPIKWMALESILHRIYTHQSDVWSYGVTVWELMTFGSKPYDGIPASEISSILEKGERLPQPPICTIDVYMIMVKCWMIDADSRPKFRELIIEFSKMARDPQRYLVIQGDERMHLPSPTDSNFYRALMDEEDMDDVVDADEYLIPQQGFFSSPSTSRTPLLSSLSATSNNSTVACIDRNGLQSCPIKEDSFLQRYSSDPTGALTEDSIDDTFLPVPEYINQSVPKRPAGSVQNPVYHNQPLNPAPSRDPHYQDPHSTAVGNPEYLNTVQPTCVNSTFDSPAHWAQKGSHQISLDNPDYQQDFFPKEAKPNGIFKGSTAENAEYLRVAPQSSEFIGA
Sequence of CLK4 (Q9HAZ1 whole entry): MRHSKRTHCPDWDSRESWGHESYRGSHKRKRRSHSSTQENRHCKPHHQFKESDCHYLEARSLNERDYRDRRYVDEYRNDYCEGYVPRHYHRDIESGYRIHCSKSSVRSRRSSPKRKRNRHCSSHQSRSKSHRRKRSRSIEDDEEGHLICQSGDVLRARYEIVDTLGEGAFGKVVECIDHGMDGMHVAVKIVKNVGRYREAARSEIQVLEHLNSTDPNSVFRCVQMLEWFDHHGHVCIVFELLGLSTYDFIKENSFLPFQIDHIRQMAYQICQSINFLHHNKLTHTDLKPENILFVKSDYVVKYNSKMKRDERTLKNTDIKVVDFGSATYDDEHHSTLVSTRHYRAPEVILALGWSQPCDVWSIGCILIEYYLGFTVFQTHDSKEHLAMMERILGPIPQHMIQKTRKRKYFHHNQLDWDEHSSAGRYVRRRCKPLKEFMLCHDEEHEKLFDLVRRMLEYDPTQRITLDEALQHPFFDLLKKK
Sequence of EGFR Δ746-750/C797S mutant (P00533 other isoform, or with tags, fused parts or gaps C797S/del 1-668/del 746-750 limits assumed): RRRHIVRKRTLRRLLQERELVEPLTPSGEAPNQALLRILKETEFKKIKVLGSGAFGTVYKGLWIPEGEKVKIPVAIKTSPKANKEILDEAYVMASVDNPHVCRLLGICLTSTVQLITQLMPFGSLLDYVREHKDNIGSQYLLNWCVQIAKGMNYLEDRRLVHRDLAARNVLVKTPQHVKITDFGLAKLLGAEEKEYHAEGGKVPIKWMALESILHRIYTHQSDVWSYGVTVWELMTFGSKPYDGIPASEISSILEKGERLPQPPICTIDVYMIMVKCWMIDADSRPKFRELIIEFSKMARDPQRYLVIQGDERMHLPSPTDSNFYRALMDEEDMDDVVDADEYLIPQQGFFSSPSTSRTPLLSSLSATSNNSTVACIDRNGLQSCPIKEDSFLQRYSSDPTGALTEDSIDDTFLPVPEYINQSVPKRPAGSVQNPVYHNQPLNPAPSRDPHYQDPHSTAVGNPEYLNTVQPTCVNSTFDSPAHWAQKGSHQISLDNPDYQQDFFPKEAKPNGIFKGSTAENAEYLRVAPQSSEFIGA
Sequence of EGFR Δ746-750 mutant (P00533 other isoform, or with tags, fused parts or gaps del 1-668/del 746-750 limits assumed): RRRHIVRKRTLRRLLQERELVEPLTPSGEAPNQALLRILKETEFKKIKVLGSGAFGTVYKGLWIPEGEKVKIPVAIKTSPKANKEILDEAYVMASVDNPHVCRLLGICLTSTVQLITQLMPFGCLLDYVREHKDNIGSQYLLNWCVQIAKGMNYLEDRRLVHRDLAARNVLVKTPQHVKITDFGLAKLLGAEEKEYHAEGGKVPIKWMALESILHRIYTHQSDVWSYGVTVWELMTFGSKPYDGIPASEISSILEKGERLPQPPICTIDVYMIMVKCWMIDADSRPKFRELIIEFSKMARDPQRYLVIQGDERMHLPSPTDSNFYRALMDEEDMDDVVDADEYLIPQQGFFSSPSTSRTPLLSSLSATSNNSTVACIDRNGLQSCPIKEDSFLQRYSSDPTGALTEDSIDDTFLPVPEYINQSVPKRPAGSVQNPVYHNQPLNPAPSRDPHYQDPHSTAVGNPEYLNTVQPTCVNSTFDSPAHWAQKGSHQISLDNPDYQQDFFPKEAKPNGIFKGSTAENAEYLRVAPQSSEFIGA
Sequence of EGFR (D770_N771insNPG) (P00533 other isoform, or with tags, fused parts or gaps del 1-668/ins NPG behind 770 limits assumed): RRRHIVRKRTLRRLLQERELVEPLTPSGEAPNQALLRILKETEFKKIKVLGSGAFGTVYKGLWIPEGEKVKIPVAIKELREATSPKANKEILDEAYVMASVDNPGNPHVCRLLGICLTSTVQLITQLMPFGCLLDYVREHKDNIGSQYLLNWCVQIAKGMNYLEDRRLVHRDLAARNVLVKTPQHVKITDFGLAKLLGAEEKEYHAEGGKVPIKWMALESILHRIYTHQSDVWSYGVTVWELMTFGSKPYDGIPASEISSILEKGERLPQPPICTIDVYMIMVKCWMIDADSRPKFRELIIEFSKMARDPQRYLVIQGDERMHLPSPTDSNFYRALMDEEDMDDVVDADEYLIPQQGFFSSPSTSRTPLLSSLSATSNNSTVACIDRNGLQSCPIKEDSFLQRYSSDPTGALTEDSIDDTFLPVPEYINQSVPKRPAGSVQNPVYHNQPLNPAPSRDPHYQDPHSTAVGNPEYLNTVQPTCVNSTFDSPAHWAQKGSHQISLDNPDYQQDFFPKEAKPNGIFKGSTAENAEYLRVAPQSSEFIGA
Sequence of CLK3 (P49761 whole entry): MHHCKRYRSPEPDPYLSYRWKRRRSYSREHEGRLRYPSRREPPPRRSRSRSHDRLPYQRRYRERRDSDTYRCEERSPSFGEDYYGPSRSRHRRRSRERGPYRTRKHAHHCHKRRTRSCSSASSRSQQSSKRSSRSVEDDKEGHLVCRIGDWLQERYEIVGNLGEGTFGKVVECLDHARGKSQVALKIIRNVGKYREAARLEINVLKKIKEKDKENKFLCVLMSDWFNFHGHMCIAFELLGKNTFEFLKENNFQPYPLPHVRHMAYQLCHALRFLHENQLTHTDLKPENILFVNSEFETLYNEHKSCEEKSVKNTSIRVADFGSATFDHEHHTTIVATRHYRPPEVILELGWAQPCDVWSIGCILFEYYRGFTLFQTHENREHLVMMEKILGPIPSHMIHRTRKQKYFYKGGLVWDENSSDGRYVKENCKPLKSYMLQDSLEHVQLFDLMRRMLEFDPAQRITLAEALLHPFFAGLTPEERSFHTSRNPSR

SMILES	IC50 [1] [nM]	IC50 [2] [nM]	IC50 [3] [nM]	IC50 [4] [nM]	IC50 [5] [nM]	IC50 [6] [nM]	IC50 [7] [nM]	IC50 [8] [nM]	IC50 [9] [nM]	IC50 [10] [nM]	IC50 [11] [nM]
CCc1noc2c1/C=C/c1n[nH]c3ccc(cc13)-c1cnn(C)c1O[C@@H](C)CN(C)C2 [Example 174, (10S,17E)-16-ethyl-8,10,12-trimethyl-2,8,10,11,12,13-hexahydro-3,5-etheno[1,2]oxazolo[5,4-f]dipyrazolo[3,4-j:4′,3′-n][1,4]oxazacyclopentadecine]	752	996	133	27.2	127	10.9	4.88	0.16	0.21	128	0.51
CCOc1nn([C@@H](C)CO)c2c1/C=C/c1n[nH]c3cc(F)c(cc13)-c1cnn(C)c1OC[C@H](C)N(C(C)C)C2 [Example 228, (2S)-2-[(11S,17E)-16-ethoxy-19-fluoro-8,11-dimethyl-12-(propan-2-yl)-2,8,10,11,12,13-hexahydro-14H-3,5-ethenotripyrazolo[3,4-f:3′,4′-j:4″,3″- n][1,4]oxazacyclopentadecin-14-yl]propan-1-ol]	52.7	481	12.2	44.4	25.2	25.9	10.6	21.9	8.6	1000	34
CCN1Cc2c(c(OC(C)C)nn2C[C@H](C)O)/C=C/c2n[nH]c3ccc(cc23)-c2cnn(C)c2O[C@H](C)C1 [Example 227, (2S)-1-{(10R,17E)-12-ethyl-8,10-dimethyl-16-[(propan-2-yl)oxy]-2,8,10,11,12,13-hexahydro-14H-3,5-ethenotripyrazolo[3,4-f:3′,4′-j:4″,3″- n][1,4]oxazacyclopentadecin-14-yl}propan-2-ol]	251	167	9.86	6.82	60.1	0.84	0.36	4.9	2.59	471	4.63
CCOc1nn(C)c2c1/C=C/c1n[nH]c3ccc(cc13)-c1cnn(C)c1O[C@@H]1CCCN(C2)C1 [Example 160, (10R,19E)-18-ethoxy-8,16-dimethyl-2,8,10,11,12,13,15,16-octahydro-3,5-etheno-10,14-methanotripyrazolo[3,4-h:3′,4′-l:4″,3″- p][1,6]oxazacycloheptadecine]	63	246	13.6	19.5	34.4	1.42	1.08	0.22	0.3	38.2	0.41
Cc1nn(C)c2c1/C=C/c1n[nH]c3ccc(cc13)-c1cnn(C)c1OCCN(C)C2 [Example 43, (17E)-8,12,14,16-tetramethyl-2,10,11,12,13,14-hexahydro-8H-3,5-ethenotripyrazolo[3,4-f:3′,4′-j:4″,3″- n][1,4]oxazacyclopentadecine]	543	541	74.8	133	144	13.5	34.5	0.1	0.14	236	0.25

These reach a lower IC50 [1]. Values come first.

IC50 [1] [nM]	IC50 [2] [nM]	IC50 [3] [nM]	IC50 [4] [nM]	IC50 [5] [nM]	IC50 [6] [nM]	IC50 [7] [nM]	IC50 [8] [nM]	IC50 [9] [nM]	IC50 [10] [nM]	IC50 [11] [nM]	SMILES
19.3	36.1	3.24	1.6	2.01	0.48	1.26	0.47	0.49	346	1.13	CCn1ncc2c1O[C@@H](C)CN(C)Cc1c(c(OC(C)C)nn1CCO)/C=C/c1n[nH]c3ccc-2cc13 [Example 169, 2-{(10S,17E)-8-ethyl-10,12-dimethyl-16-[(propan-2-yl)oxy]-2,8,10,11,12,13-hexahydro-14H-3,5-ethenotripyrazolo[3,4-f:3′,4′-j:4″,3″- n][1,4]oxazacyclopentadecin-14-yl}ethan-1-ol]
1.43	4.05	0.95	1.98	1.18	3.01	6.62	0.82	0.27	9.89	1.6	CC(C)Oc1nn(CCO)c2c1/C=C/c1n[nH]c3cc(F)c(cc13)-c1cnn(C)c1O[C@H](C)[C@H]1CCCN1C2 (single isomer, unassigned) [Example 255]
44.1	127	18.6	2.42	7.63	0.7	1.02	0.82	2.13	541	2.03	CCN1Cc2nn(C)c(C)c2/C=C/c2n[nH]c3ccc(cc23)-c2cnn(C)c2O[C@@H](C)C1 [Example 59, (10S,17E)-12-ethyl-8,10,15,16-tetramethyl-2,10,11,12,13,15-hexahydro-8H-3,5-ethenotripyrazolo[3,4-f:3′,4′-j:4″,3″-n][1,4]oxazacyclopentadecine]
19.3	64.9	1.77	3.62	4.34	0.88	1.04	0.42	0.13	63.6	0.4	CCOc1nn(C)c2c1/C=C/c1n[nH]c3ccc(cc13)-c1cnn(C)c1O[C@@H](C)CN(C(C)C)C2 [Example 156, (10S,17E)-16-ethoxy-8,10,14-trimethyl-12-(propan-2-yl)-2,10,11,12,13,14-hexahydro-8H-3,5-ethenotripyrazolo[3,4-f:3′,4′-j:4″,3″-n][1,4]oxazacyclopentadecine]
23.3	39.5	8.71	3.18	5.14	1.71	4.42	0.75	1.36	386	1.33	CC(C)Oc1nn(CCO)c2c1/C=C/c1n[nH]c3ccc(cc13)-c1cnn(C3CC3)c1O[C@@H](C)CN(C)C2 [Example 246, 2-{(10S,17E)-8-cyclopropyl-10,12-dimethyl-16-[(propan-2-yl)oxy]-2,8,10,11,12,13-hexahydro-14H-3,5-ethenotripyrazolo[3,4-f:3′,4′-j:4″,3″-n][1,4]oxazacyclopentadecin-14-yl}ethan-1-ol]
7.91	30.5	2.01	1.32	4.35	1.04	0.52	0.57	0.18	45.1	1.22	C[C@H](C#N)Oc1nn(CCO)c2c1/C=C/c1n[nH]c3cc(F)c(cc13)-c1cnn(C)c1O[C@@H](C)CN(C)C2 [Ex. 268, (2R)-2-{[(10S,17E)-19-fluoro-14-(2-hydroxyethyl)-8,10,12-trimethyl-2,10,11,12,13,14-hexahydro-8H-3,5-ethenotripyrazolo[3,4-f:3′,4′-j:4″,3″-n][1,4]oxazacyclopentadecin-16-yl]oxy}propanenitrile]
26.8	68.9	5.11	11.5	12	0.8	1.06	0.66	1.73	397	1.03	CCOc1nn(C)c2c1/C=C/c1n[nH]c3ccc(cc13)-c1cnn(C)c1O[C@@H]1CCN(C2)C1 [Example 236, (10R,18E)-17-ethoxy-8,15-dimethyl-2,8,11,12,14,15-hexahydro-10H-3,5-etheno-10,13-methanotripyrazolo[3,4-g:3′,4′-k:4″,3″- o][1,5]oxazacyclohexadecine]
